In PubChem BioAssay (NCI):
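Where inhibition never reached the appropriate level, the endpoint shown equals the highest concentration tested. Otherwise, values were interpolated linearly from a five-concentration, 48-hour dose response in 96-well plates. TGI is the concentration that stops growth completely.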

Experiments:
Test in all cases: DTP human tumour cell line panel, 48 h
UACC-257 melanoma = test system: UACC-257 melanoma
BT-549 breast = test system: BT-549 breast
MCF7 breast = test system: MCF7 breast
CAKI-1 renal = test system: CAKI-1 renal
NCI-H522 lung = test system: NCI-H522 lung
OVCAR-8 ovarian = test system: OVCAR-8 ovarian
SF-539 CNS = test system: SF-539 CNS
OVCAR-4 ovarian = test system: OVCAR-4 ovarian
ACHN renal = test system: ACHN renal
KM12 colon = test system: KM12 colon

Row | Structure (SMILES) | TGI (UACC-257 melanoma) | TGI (BT-549 breast) | TGI (MCF7 breast) | TGI (CAKI-1 renal) | TGI (NCI-H522 lung) | TGI (OVCAR-8 ovarian) | TGI (SF-539 CNS) | TGI (OVCAR-4 ovarian) | TGI (ACHN renal) | TGI (KM12 colon)
1 | C=C1CC(COc2ccc3c(C)c(C)c(=O)oc3c2C)(c2ccccc2)OC1=O (centres undefined) | 2.14 µM | 3.17 µM | 3.56 µM | 3.33 µM | 4.16 µM | 3.59 µM | 4.75 µM | 4.82 µM | 7.51 µM | 9.35 µM
2 | O=C(OC12CC3CC(CC(C3)C1)C2)c1ccc(NCc2cc(O)ccc2O)cc1 | 2.98 µM | 1.71 µM | 8.54 µM | 0.825 µM | 0.237 µM | 4.11 µM | 1.31 µM | 1.97 µM | 2.35 µM | 5.19 µM
3 | O=C(O)C1=NN(c2ccc(S(=O)(=O)O)cc2)C2(C1)C(Cl)C(=O)N2c1nc2ccccc2s1 (centres undefined) | 37.2 µM | 33 µM | 29.9 µM | 31.5 µM | 25.8 µM | 38.8 µM | 12.6 µM | 35.3 µM | 30.7 µM | 34.1 µM
4 | O=C(Sc1c(-c2ccccc2)c(=O)n(-c2ccccc2)c(=S)n1-c1ccccc1)c1ccco1 | > 31.6 µM | > 100 µM | > 100 µM | > 100 µM | > 100 µM | > 100 µM | > 100 µM | > 100 µM | > 100 µM | > 100 µM
5 | C[N+]1(CCN=C=NC2CCCCC2)CCOCC1 | > 100 µM | > 100 µM | > 100 µM | > 100 µM | > 100 µM | > 100 µM | > 100 µM | > 100 µM | > 100 µM | > 100 µM
6 | CC(=O)N(C)c1ccc(Nc2ccnc3ccc4nn(C)nc4c23)cc1 | 58.3 µM | 69.4 µM | 46.6 µM | 30.5 µM | 41.2 µM | > 100 µM | 46.4 µM | > 100 µM | 30.2 µM | 76.2 µM
7 | COc1ccc(OC/C(N=Cc2ccncc2)=N/NC(=O)c2ccncc2)cc1 | > 100 µM | > 100 µM | > 100 µM | > 100 µM | > 100 µM | > 100 µM | > 100 µM | > 100 µM | > 100 µM | > 100 µM
8 | Cc1ccc2c(c1C)CC1(Cc3c(C)ccc(C)c3C1=O)C2=O (centres undefined) | > 100 µM | > 100 µM | > 100 µM | > 100 µM | > 100 µM | > 100 µM | > 100 µM | > 100 µM | > 100 µM | > 100 µM
9 | Nc1nncc2[nH]cnc12 | > 100 µM | 77.4 µM | > 31.6 µM | > 100 µM | > 100 µM | > 79.8 µM | > 100 µM | > 100 µM | > 100 µM | > 100 µM
10 | N#Cc1nc(CCCN2C(=O)c3ccccc3C2=O)oc1N | > 100 µM | > 100 µM | > 100 µM | > 100 µM | > 100 µM | > 100 µM | > 100 µM | > 100 µM | > 100 µM | –
11 | Cn1c2c(c3ccccc31)CCN1C(=O)C34CCCC3CC21S4 (centres undefined) | > 100 µM | > 100 µM | > 100 µM | > 100 µM | > 100 µM | > 100 µM | > 100 µM | > 100 µM | > 100 µM | > 100 µM
12 | NC(N)=NS(=O)(=O)c1ccc(NC(=O)c2cccc3c(NNc4ccc(S(N)(=O)=O)cc4)c4ccccc4nc23)cc1 | > 100 µM | > 100 µM | 86.3 µM | > 100 µM | 91.6 µM | > 100 µM | > 100 µM | > 100 µM | > 100 µM | > 100 µM
13 | C[n+]1c(-c2ccc(NC(=O)c3ccc(C(=O)Nc4ccc(-c5cn6ccccc6[n+]5C)cc4)cc3)cc2)cn2ccccc21 | > 100 µM | > 100 µM | > 100 µM | > 100 µM | > 100 µM | > 100 µM | > 100 µM | > 100 µM | > 100 µM | > 100 µM
14 | NCCCCNCCCNC(=O)CNC(=O)CC(O)C(N)CCCC(NC(=O)C(CN)NC(=O)C(O)CNC(=O)CC(N)c1ccc(O)cc1)C(=O)O (centres undefined) | > 10 µM | > 10 µM | > 10 µM | > 10 µM | > 10 µM | > 10 µM | > 10 µM | > 10 µM | > 10 µM | > 10 µM
15 | NC(Cc1[nH]nc2ccccc12)C(=O)O (centres undefined) | > 100 µM | > 100 µM | > 100 µM | > 100 µM | > 100 µM | > 100 µM | > 100 µM | > 100 µM | > 100 µM | > 100 µM
16 | COc1ccc2c(c1)-c1c(c3cc(OC)ccc3n1CCN(C)C)CC2 | 29.4 µM | 26.9 µM | 28.9 µM | 28.8 µM | 34.1 µM | 32.6 µM | 29.8 µM | 33.1 µM | 28.4 µM | 36.7 µM
17 | CC1(C)N=C(N)N=C(N)N1c1cccc(OCc2cccc(N)c2)c1 | 55 µM | > 100 µM | > 100 µM | > 100 µM | > 100 µM | > 100 µM | > 80.4 µM | > 100 µM | > 100 µM | > 100 µM
